For four compounds, IC50 results are on record in BindingDB's records for doi:10.1021/jm00100a018 (1992).

For orientation: IC50 means the midpoint of a concentration-inhibition curve. Low readings indicate inhibition by little substance, high ones a need for much substance.

Test [1] can be described thus: Concentration tested in vitro to inhibit PAF-induced maximum aggregation (PAF-Antagonistic activity) by 50%.
Assay in test [2]: as above
The source holds these as a separate data set.

Where a name gives a salt, the structure may show the parent alone.

As to `CC(C(=O)N1CCN(C(C#N)c2cccnc2)CC1)c1ccccc1` (centres undefined) [[4-(2-Phenyl-propionyl)-piperazin-1-yl]-pyridin-3-yl-acetonitrile; dihydrochloride], in test [1], inhibition was half-maximal at 21 nM (IC50).

Regarding `N#CC(c1ccncc1)N1CCN(C(=O)CC(c2ccccc2)c2ccccc2)CC1` (centres undefined) [[4-(3,3-Diphenyl-propionyl)-piperazin-1-yl]-pyridin-4-yl-acetonitrile; dihydrochloride], half-maximal inhibition in test [1] (IC50) required 51 nM.

With `N#CC(c1cccnc1)N1CCN(C(=O)CCc2ccccc2)CC1` (centres undefined) [[4-(3-Phenyl-propionyl)-piperazin-1-yl]-pyridin-3-yl-acetonitrile; dihydrochloride; hydrate], in test [1], the IC50 came out at 520 nM.

`N#CC(c1cccnc1)N1CCN(C(=O)c2ccc3ccccc3c2)CC1` (centres undefined) [[4-(Naphthalene-2-carbonyl)-piperazin-1-yl]-pyridin-3-yl-acetonitrile; dihydrochloride] gave an IC50 in test [2] of 25000 nM.
